Measured values taken from US9328386B2, “Markers for susceptibility to an inhibitor of an Src-family kinase” (Evotec (München) GmbH, priority 2011, dated 2016).
Like-named read-outs stand apart in the source and are kept apart here.

What was measured:
Experiment in all cases: Cellular growth inhibition (CellTiter Glo viability assay)
Format in all cases: cell-based
[1] = system: HCC78 NSCLC cell line; conditions: Homo sapiens
[2] = system: H1395 NSCLC cell line; conditions: Homo sapiens
[3] = system: H520 NSCLC cell line; conditions: Homo sapiens
[4] = system: H1666 NSCLC cell line; conditions: Homo sapiens
[5] = system: H1648 NSCLC cell line; conditions: Homo sapiens
[6] = system: H2030 NSCLC cell line; conditions: Homo sapiens
[7] = system: H157 NSCLC cell line; conditions: Homo sapiens
[8] = system: H2172 NSCLC cell line; conditions: Homo sapiens
[9] = system: H460 NSCLC cell line; conditions: Homo sapiens
[10] = system: PC9 NSCLC cell line; conditions: Homo sapiens
[11] = system: HCC2279 NSCLC cell line; conditions: Homo sapiens
[12] = system: LouNH91 NSCLC cell line; conditions: Homo sapiens
[13] = system: HCC366 NSCLC cell line; conditions: Homo sapiens
[14] = system: HCC4006 NSCLC cell line; conditions: Homo sapiens
[15] = system: H2009 NSCLC cell line; conditions: Homo sapiens
[16] = system: H322M NSCLC cell line; conditions: Homo sapiens, NCI-H322M
[17] = system: H2077 NSCLC cell line; conditions: Homo sapiens
[18] = system: Calu6 NSCLC cell line; conditions: Homo sapiens
[19] = 96 h, read-out: GI50 this paper

## Cc1nc(Nc2ncc(C(=O)Nc3c(C)cccc3Cl)s2)cc(N2CCN(CCO)CC2)n1 [dasatinib, N-(2-chloro-6-methylphenyl)-2-[[6-[4-(2-hydroxyethyl)piperazin-1-yl]-2-methylpyrimidin-4-yl]amino]-1,3-thiazole-5-carboxamide]
[1]; HCC78, 96 h, read-out: GI50 this paper
  GI50: 17.1 µM
[1]; HCC78, read-out: Sensitivity Dasatinib
  IC50: > 1 µM
[1]; HCC78, 96 hours of treatment, read-out: GI50
  GI50: 17.1 µM
[2]; NCI-H1395, 96 h, read-out: GI50 this paper
  GI50: 4.7 µM
[2]; NCI-H1395, read-out: Sensitivity Dasatinib
  IC50: > 1 µM
[2]; NCI-H1395, H1395, 96 hours of treatment, read-out: GI50
  GI50: 4.7 µM
[3]; NCI-H520, 96 h, read-out: GI50 this paper
  GI50: 1.43 µM
[3]; NCI-H520, read-out: Sensitivity Dasatinib
  IC50: > 1 µM
[3]; NCI-H520, H520, 96 hours of treatment, read-out: GI50
  GI50: 1.43 µM
[4]; NCI-H1666, 96 h, read-out: GI50 this paper
  GI50: 0.076 µM
[4]; NCI-H1666, read-out: Sensitivity Dasatinib
  IC50: < 1 µM
[4]; NCI-H1666, H1666, 96 hours of treatment, read-out: GI50
  GI50: 0.076 µM
[5]; NCI-H1648, 96 h, read-out: GI50 this paper
  GI50: 0.079 µM
[5]; NCI-H1648, read-out: Sensitivity Dasatinib
  IC50: < 1 µM
[5]; NCI-H1648, H1648, 96 hours of treatment, read-out: GI50
  GI50: 0.079 µM
[6]; NCI-H2030, 96 h, read-out: GI50 this paper
  GI50: 0.022 µM
[6]; NCI-H2030, read-out: Sensitivity Dasatinib
  IC50: < 1 µM
[6]; NCI-H2030, H2030, 96 hours of treatment, read-out: GI50
  GI50: 0.022 µM
[7]; NCI-H157, 96 h, read-out: GI50 this paper
  GI50: 2.63 µM
[7]; NCI-H157, read-out: Sensitivity Dasatinib
  IC50: > 1 µM
[7]; NCI-H157, H157, 96 hours of treatment, read-out: GI50
  GI50: 2.63 µM
[8]; NCI-H2172, 96 h, read-out: GI50 this paper
  GI50: 5.85 µM
[8]; NCI-H2172, read-out: Sensitivity Dasatinib
  IC50: > 1 µM
[8]; NCI-H2172, H2172, 96 hours of treatment, read-out: GI50
  GI50: 5.85 µM
[9]; NCI-H460, 96 h, read-out: GI50 this paper
  GI50: 3.9 µM
[9]; NCI-H460, read-out: Sensitivity Dasatinib
  IC50: > 1 µM
[9]; NCI-H460, H460, 96 hours of treatment, read-out: GI50
  GI50: 3.9 µM
[10]; [19]
  GI50: 0.02 µM
[10]; PC-9, read-out: Sensitivity Dasatinib, PC9
  IC50: < 1 µM
[10]; PC9, 96 hours of treatment, read-out: GI50
  GI50: 0.02 µM
[11]; [19]
  GI50: 0.045 µM
[11]; read-out: Sensitivity Dasatinib, HCC2279
  IC50: < 1 µM
[11]; HCC2279, 96 hours of treatment, read-out: GI50
  GI50: 0.045 µM
[12]; LOU-NH91, 96 h, read-out: GI50 this paper
  GI50: 0.068 µM
[12]; LOU-NH91, read-out: Sensitivity Dasatinib, LouNH91
  IC50: < 1 µM
[12]; LOU-NH91, LouNH91, 96 hours of treatment, read-out: GI50
  GI50: 0.068 µM
[13]; HCC366, 96 h, read-out: GI50 this paper
  GI50: 0.017 µM
[13]; HCC366, read-out: Sensitivity Dasatinib
  IC50: < 1 µM
[13]; HCC366, 96 hours of treatment, read-out: GI50
  GI50: 0.017 µM
[14]; HCC4006, 96 h, read-out: GI50 this paper
  GI50: 0.95 µM
[14]; HCC4006, read-out: Sensitivity Dasatinib
  IC50: < 1 µM
[14]; HCC4006, 96 hours of treatment, read-out: GI50
  GI50: 0.95 µM
[15]; NCI-H2009, 96 h, read-out: GI50 this paper
  GI50: 0.085 µM
[15]; NCI-H2009, read-out: Sensitivity Dasatinib
  IC50: < 1 µM
[15]; NCI-H2009, H2009, 96 hours of treatment, read-out: GI50
  GI50: 0.085 µM
[16]; [19]
  GI50: 0.311 µM
[16]; read-out: Sensitivity Dasatinib
  IC50: < 1 µM
[16]; H322M, 96 hours of treatment, read-out: GI50
  GI50: 0.311 µM
[17]; [19]
  GI50: 4.75 µM
[17]; read-out: Sensitivity Dasatinib, H2077
  IC50: > 1 µM
[17]; H2077, 96 hours of treatment, read-out: GI50
  GI50: 4.75 µM
[18]; Calu-6, 96 h, read-out: GI50 this paper
  GI50: 2.8 µM
[18]; Calu-6, read-out: Sensitivity Dasatinib
  IC50: > 1 µM
[18]; Calu-6, 96 hours of treatment, read-out: GI50
  GI50: 2.8 µM
